From patent US20070117773A1, “Telomerase-inhibiting ENA oligonucleotide” (SANKYO COMPANY, LIMITED, priority 2004, published 2007) come the findings set out here.

In this assay the test system is RNA oligonucleotide having the sequence of telomerase RNA (5′-UUGUCUAACCCUA-3′). Briefly: Test for determining melting temperature (Tm) with telomerase RNA oligonucleotide. The format is binding, human. Particulars: 3.4 μM compound + 3.4 μM RNA oligonucleotide, 10 mM sodium phosphate buffer (pH 7.2), absorbance at 260 nm, 20° C. to 95° C.
Turning to “HO-T^e2s-A^e2s-G^e2s-G^e2s-G^e2s-T^e2s-T^e2s-A^e2s-CH2CH2OH [Example 4]”, the “Tm (melting temperature)” value amounted to 62 °C.
With “HO-T^e2s-A^e2s-G^e2s-G^e2s-G^e2s-T^e2s-T^e2s-A^e2s-G^e2s-A^e2s-CH2CH2OH [Example 3]” the figure was 74 °C.
Take “HO-T^e2s-A^e2s-G^e2s-G^e2s-G^e2s-T^e2s-T^e2s-A^e2s-G^e2s-A^e2s-C^e2s-A^e2s-CH2CH2OH [Example 2]”: the “Tm (melting temperature)” value was 87 °C.
Consider “HO-T^e2s-A^e2s-G^e2s-G^e2s-G^e2s-T^e2s-T^e2s-A^e2s-G^e2s-CH2CH2OH [Example 6]”, for which the “Tm (melting temperature)” value was 71 °C.
With “HO-T^e2s-A^e2s-G^e2s-G^e2s-G^e2s-T^e2s-T^e2s-A^e2s-G^e2s-C^e2s-A^e2s-A^e2s-CH2CH2OH [Example 1]” the figure was 85 °C.
In the case of “HO-T^e2s-A^e2s-G^e2s-G^e2s-G^e2s-T^e2s-T^e2s-CH2CH2OH [Example 5]”, the “Tm (melting temperature)” value was found to be 52 °C.
